Source: patent US20140073631A1 (priority 2012, published 2014)
≈ marks a conversion by molar mass, not a printed value. Entries after “also recorded” stand apart in the source; their conditions may differ. Where two headings read alike, the source gives them in different places.

Tests used:
HIV-1 = assay: CEM-SS microtiter antiviral XTT cytoprotection assay; type: cell-based
[1] = tested on: HIV-1 ROJO (low passage clinical strain); assay: PBMC assay, virus production by reverse transcriptase activity; type: cell-based; conditions: PBMCs
several bacteria = type: cell-based
Yersinia pestis = assay: microbe, parasite or virus in culture; type: cell-based
Bacillus anthracis = assay: microbe, parasite or virus in culture; type: cell-based
Francisella tularensis = assay: microbe, parasite or virus in culture; type: cell-based
Burkholderia mallei = assay: microbe, parasite or virus in culture; type: cell-based
[2] = tested on: Burkholderia pseudomallei; assay: microbe, parasite or virus in culture; type: cell-based
Mtb H37Rv (SRI 1345) [3] = assay: microbe, parasite or virus in culture; type: cell-based, Mycobacterium tuberculosis
Mtb H37Rv (SRI 1345) [4] = assay: microbe, parasite or virus in culture; type: cell-based, Mycobacterium tuberculosis; remark: listed apart in the source
[5] = tested on: Mtb H37Rv (SRI 1345), nonreplicating persistence; type: cell-based, Mycobacterium tuberculosis
[6] = tested on: Mtb H37Rv (SRI 1345) in murine J774 cells; type: cell-based, Mycobacterium tuberculosis
[7] = tested on: fresh human peripheral blood mononuclear cells
[8] = tested on: uninfected J774 macrophages; conditions: mouse
Y. pestis C092 = type: in vivo, BALB/c mice
F. tularensis SCHU S4 = tested on: F. tularensis SCHU S4; design: species or system BALB/c mice; conditions: mouse, in vivo
H37Rv Colorado strain [9] = assay: TB MIC Testing (Table 9); type: cell-based; conditions: Mycobacterium tuberculosis, read-out: MIC Value, Standard Test Strain H27Rv
H37Rv Colorado strain [10] = assay: MBC Determination with H37Rv Colorado strain (Table 9); type: cell-based; conditions: Mycobacterium tuberculosis; Performed with H37Rv
TB = assay: DMID TB MIC Results (Table 10); type: cell-based; conditions: Mycobacterium tuberculosis; solvent DMSO
B. anthracis = assay: microbe, parasite or virus in culture; type: cell-based; conditions: Bacillus anthracis, read-out: MIC B. anthracis
B. mallei = assay: microbe, parasite or virus in culture; type: cell-based; conditions: Burkholderia mallei, read-out: MIC B. mallei
B. pseudomallei = assay: microbe, parasite or virus in culture; type: cell-based; conditions: Burkholderia pseudomallei, read-out: MIC B. pseudomallei
F. tularensis = assay: microbe, parasite or virus in culture; type: cell-based; conditions: Francisella tularensis, read-out: MIC F. tularensis (Original Test)
Y. pestis = assay: microbe, parasite or virus in culture; type: cell-based; conditions: Yersinia pestis, read-out: MIC Y. pestis
E. coli = assay: microbe, parasite or virus in culture; type: cell-based; conditions: Escherichia coli, read-out: MIC E. coli
P. aeruginosa = assay: microbe, parasite or virus in culture; type: cell-based; conditions: Pseudomonas aeruginosa, read-out: MIC P. aeruginosa
Plasmodium falciparum = assay: Anti-malaria testing; type: cell-based
[11] = mouse, in vivo
Vero Cells = assay: Cytotoxicity Assay, CellTiter-Glo Luminescent Cell Viability Assay

## N=C(NCCCCCCNC(=N)NC(=N)N1CCN(c2cc3c(cc2F)c(=O)c(C(=O)O)cn3C2CC2)CC1)NC(=N)N1CCN(c2cc3c(cc2F)c(=O)c(C(=O)O)cn3C2CC2)CC1 [BVS-10A]
HIV-1; 0.00032 nG/mL
  % RED. IN VIRAL CPC: 3%
HIV-1; 0.001 nG/mL
  % RED. IN VIRAL CPC: 4%
HIV-1; 0.0032 nG/mL
  % RED. IN VIRAL CPC: 1%
HIV-1; 0.01 nG/mL
  % RED. IN VIRAL CPC: 4%
HIV-1; 0.032 nG/mL
  % RED. IN VIRAL CPC: 7%
HIV-1; 0.1 nG/mL
  % RED. IN VIRAL CPC: 2%
HIV-1; 0.32 nG/mL
  % RED. IN VIRAL CPC: 4%
HIV-1; 1 nG/mL
  % RED. IN VIRAL CPC: 9%
HIV-1; 3.2 nG/mL
  % RED. IN VIRAL CPC: 2%
HIV-1; 10 nG/mL
  % RED. IN VIRAL CPC: 11%
HIV-1; 32 nG/mL
  % RED. IN VIRAL CPC: 100%
HIV-1; 100 nG/mL
  % RED. IN VIRAL CPC: 100%
[1]
  concentrations at which active: greater than 3.2 μg/mL
Several bacteria
  minimum inhibitory concentrations (MIC), range over strains: <0.128 to 12.8 µg/mL
Yersinia pestis
  MIC Range: 0.125 to 0.5 µg/mL
Yersinia pestis; Yersinia pestis
  MIC50: 0.25 µg/mL (≈ 0.274 µM)
Bacillus anthracis
  MIC Range: 0.25 to 2 µg/mL
Bacillus anthracis; Bacillus anthracis
  MIC50: 0.5 µg/mL (≈ 0.548 µM)
Francisella tularensis
  MIC Range: <0.03125 to 0.25 µg/mL
Francisella tularensis; Francisella tularensis
  MIC50: 0.0625 µg/mL (≈ 0.0685 µM)
Burkholderia mallei
  MIC Range: 0.25 to 8 µg/mL
Burkholderia mallei; Burkholderia mallei
  MIC50: 1 µg/mL (≈ 1.1 µM)
  MIC90: ≥ 4 µg/mL
[2]
  MIC Range: 4 to 64 µg/mL
  isolates with MICs<16 μg/ml: 30%
[2]; Burkholderia pseudomallei
  MIC50: 32 µg/mL (≈ 35 µM)
  MIC90: 64 µg/mL (≈ 70.1 µM)
Mtb H37Rv (SRI 1345) [3]
  % inhibition at the MIC concentration: 66%
Mtb H37Rv (SRI 1345) [3]; Mycobacterium tuberculosis, H37RV, 168 h, read-out: MIC H37Rv
  MIC: 6.25 µg/mL (≈ 6.85 µM)
Mtb H37Rv (SRI 1345) [4]
  Colony Count: TNTC
[5]
  LORA: >6.25 µg/mL
[6]
  Microphage log reduction (low conc.): 1.14
  Microphage log reduction (mid conc.): 0.80
CEM-SS cells; 0.00032 nG/mL
  % CELL VIABILITY: 100%
CEM-SS cells; 0.001 nG/mL
  % CELL VIABILITY: 100%
CEM-SS cells; 0.0032 nG/mL
  % CELL VIABILITY: 100%
CEM-SS cells; 0.01 nG/mL
  % CELL VIABILITY: 100%
CEM-SS cells; 0.032 nG/mL
  % CELL VIABILITY: 100%
CEM-SS cells; 0.1 nG/mL
  % CELL VIABILITY: 100%
CEM-SS cells; 0.32 nG/mL
  % CELL VIABILITY: 100%
CEM-SS cells; 1 nG/mL
  % CELL VIABILITY: 100%
CEM-SS cells; 3.2 nG/mL
  % CELL VIABILITY: 100%
CEM-SS cells; 10 nG/mL
  % CELL VIABILITY: 100%
CEM-SS cells; 32 nG/mL
  % CELL VIABILITY: 100%
CEM-SS cells; 100 nG/mL
  % CELL VIABILITY: 100%
CEM-SS cells; human
  TC 25%: >100.00 UG/mL
  TC 50%: >100.00 UG/mL
  TC 95%: >100.00 UG/mL
[7]; 0.01 μg/ml
  TOXICITY VALUES (XTT) % CC: 103.2%
[7]; 0.032 μg/ml
  TOXICITY VALUES (XTT) % CC: 103.6%
[7]; 0.1 μg/ml
  TOXICITY VALUES (XTT) % CC: 97.1%
[7]; 0.32 μg/ml
  TOXICITY VALUES (XTT) % CC: 100.9%
[7]; 1 μg/ml
  TOXICITY VALUES (XTT) % CC: 96.2%
[7]; 3.2 μg/ml
  TOXICITY VALUES (XTT) % CC: 103.5%
[7]; 10 μg/ml
  TOXICITY VALUES (XTT) % CC: 108.3%
[7]; 32 μg/ml
  TOXICITY VALUES (XTT) % CC: 97.3%
[7]; 100 μg/mL
  toxicity in PBMCs: Toxicity was detected
[7]; 100 μg/ml
  TOXICITY VALUES (XTT) % CC: 51.2%
[8]
  MTT % viability (high conc.): 73%
  MTT % viability (low conc.): >100%
  MTT % viability (mid conc.): 63%

## C[C@@H]1COc2c(N3CCN(C(=N)NC(=N)N4CCN(c5c(F)cc6c(=O)c(C(=O)O)cn7c6c5OC[C@@H]7C)CC4)CC3)c(F)cc3c(=O)c(C(=O)O)cn1c23 [BVS-76D (XVII)]
Yersinia pestis; Yersinia pestis
  MIC90: < 4 µg/mL
Bacillus anthracis; Bacillus anthracis
  MIC90: ≤ 0.25 µg/mL
Francisella tularensis; Francisella tularensis
  MIC90: < 4 µg/mL
Burkholderia mallei; Burkholderia mallei
  MIC90: < 4 µg/mL
Y. pestis C092; 21 days
  survival: 100%
Y. pestis C092; mouse, in vivo, 5 mg/kg/day
  protection of infected mice: complete protection
F. tularensis SCHU S4
  life span of the mice (average): 10 days
  outcome by day 13: all the mice in test Groups 3, 4 and 5 were dead
  protection of infected mice: partial protection; also recorded: not significantly effective
H37Rv Colorado strain [9]
  MIC: 0.312 to 0.625 µg/mL (≈ 0.41 to 0.82 µM)
H37Rv Colorado strain [10]
  MBC: 0.625 µg/mL (≈ 0.82 µM)
TB
  IC50: 1.1 µg/mL (≈ 1.44 µM)
  IC90: 1.19 µg/mL (≈ 1.56 µM)
  MIC: 1.25 µg/mL (≈ 1.64 µM)
B. anthracis
  MIC: < 0.06 µg/mL
B. mallei
  MIC: 1 µg/mL (≈ 1.31 µM)
B. pseudomallei
  MIC: 2 to 4 µg/mL (≈ 2.63 to 5.25 µM)
F. tularensis
  MIC: < 0.06 µg/mL
Y. pestis
  MIC: < 0.06 µg/mL
E. coli
  MIC: < 0.06 µg/mL
P. aeruginosa
  MIC: 0.25 µg/mL (≈ 0.328 µM)
Plasmodium falciparum; average of Test 1 and Test 2, read-out: Average IC50
  IC50: 2.72 µM
Plasmodium falciparum; read-out: IC50 Test 1
  IC50: 4.02 µM
Plasmodium falciparum; read-out: IC50 Test 2
  IC50: 1.43 µM
[11]
  symptoms in treated animals incl. unchallenged toxicity group: some inflammation in the urinary, vaginal and rectal areas
Vero Cells; 0.01 μg/ml
  % Viability: 119%
Vero Cells; 0.02 μg/ml
  % Viability: 105%
Vero Cells; 5 μg/ml
  % Viability: 113%
Vero Cells; 10 μg/ml
  % Viability: 100%
Vero Cells; 20 μg/ml, vs […] DMSO controls
  % Viability: 96%
